Data published in patent publication US20140315933A1, “CHEMICAL COMPOUNDS” (Pfizer Limited, priority 2013, published 2014).
Structures can show the parent of a compound that is named as a salt.

Target: T1, URAT-1 transporter (Homo sapiens, UniProt Q96S37)
T1 construct: expressed in transfected cells
Test: URAT-1 inhibitor activity: [14C]-uric acid uptake into CHO-URAT1(L)GFP#8 (CHO#8) cells, scintillation proximity
Assay type: cell-based
Source text: The nucleotide sequence for the long isoform of URAT1 (NM_144585) was C-terminally fused to that of enhanced green fluorescent protein (eGFP) (hereinafter referred to as URAT1(L)GFP). The combined sequence was codon-optimised and custom synthesized. The synthesized sequence was generated in pDONR221 Gateway entry vector (Invitrogen Life Technologies) prior to cloning in pLenti6.3/V5 Gateway destination vector (Invitrogen Life Technologies).
Lentiviral particles were generated according to ViraPower HiPerform expression system procedure (Invitrogen Life Technologies) and used to transduce CHO cells. Blasticidin selection enabled the generation of a stable clonal pool of cells, confirmed by expression of GFP and V5 epitope. The clonal pools were sorted using fluorescence-activated cell sorting (FACS) on the basis of GFP expression with the gating set at the top 50% of expression into single cells which were subsequently expanded to generate clonal lines. […] This cell line was used for all screening activities and is referred to as CHO-URAT1(L)GFP#8 or CHO#8.
The potency of the compounds of formula (I) as inhibitors of the URAT-1 transporter was determined as follows.
CHO#8 cells were cultured in cell line maintenance flasks in medium consisting of Dulbecco's modified Eagle medium (DMEM) with high glucose and sodium pyruvate (4.5 g of glucose per litre, Invitrogen Life Technologies), supplemented with heat-inactivated foetal bovine serum (FBC, 10% v/v), 1×NEAA (non-essential amino acids) and blasticidin (10 μg/ml). Cultures were grown in 175 cm^2 tissue culture flasks in a humidified incubator at approximately 37° C. in approximately 95% air/5% CO2. Near confluent CHO#8 cell cultures were harvested by trypsinisation, re-suspended in culture medium and the process was repeated once or twice weekly to provide sufficient cells for use.
Assay ready flasks were generated by the same method, except the cells were not cultured in blasticidin.
Assay ready frozen cells were generated by freezing 40,000,000 cells in 1 ml of FBS (without blasticidin) containing 10% DMSO per vial. One vial was sufficient for 5 assay plates. Each vial was thawed rapidly to 37° C., washed and re-suspended in pre-warmed culture medium for seeding onto assay plates.
CHO#8 cells were seeded onto Cytostar™ 96-well plates at a density of […]. The cells were cultured for 1 day at approximately 37° C. in a humidified incubator containing approximately 5% CO2 in air. After approximately 24 hours culture, cells were used for uptake experiments.
On the day of assay, culture medium was removed from the wells and the cells were washed once with 50 μL of chloride-containing buffer (136.7 mM NaCl, 5.36 mM KCl, 0.952 mM CaCl2, 0.441 mM KH2PO4, 0.812 mM MgSO4, 5.6 mM D-glucose, 0.383 mM Na2HPO4.2H2O, 10 mM HEPES, pH 7.4 with NaOH). The cells were pre-incubated with another 50 μL of chloride-containing buffer for one hour at approximately 37° C. in a humidified incubator containing approximately 5% CO2 in air.
Assay compound plates were prepared by diluting the compounds of formula (I) with chloride-free buffer (125 mM Na-gluconate, 4.8 mM K-gluconate, 1.3 mM Ca-gluconate, 1.2 mM KH2PO4, 1.2 mM MgSO4, 5.6 mM D-glucose, 25 mM HEPES, pH 7.4 with NaOH) in 100% DMSO to a final concentration of 1% DMSO. [^14C]-Uric Uric acid working stock was made by addition of radiolabeled compound to a final concentration of 120 nM in chloride-free buffer. In all wells, the final assay concentration of solvent (DMSO) was 0.25%; the final assay concentration of [^14C]-uric acid was 30 nM in chloride-free buffer and the final compound of formula (I) concentrations ranged from 0 to 10 μM.
After pre-incubation, cells were washed with 50 μL of chloride-free buffer and another 50 μL of chloride-free buffer was added. […]

T1 sequence (Q96S37 with tags, fused parts or gaps): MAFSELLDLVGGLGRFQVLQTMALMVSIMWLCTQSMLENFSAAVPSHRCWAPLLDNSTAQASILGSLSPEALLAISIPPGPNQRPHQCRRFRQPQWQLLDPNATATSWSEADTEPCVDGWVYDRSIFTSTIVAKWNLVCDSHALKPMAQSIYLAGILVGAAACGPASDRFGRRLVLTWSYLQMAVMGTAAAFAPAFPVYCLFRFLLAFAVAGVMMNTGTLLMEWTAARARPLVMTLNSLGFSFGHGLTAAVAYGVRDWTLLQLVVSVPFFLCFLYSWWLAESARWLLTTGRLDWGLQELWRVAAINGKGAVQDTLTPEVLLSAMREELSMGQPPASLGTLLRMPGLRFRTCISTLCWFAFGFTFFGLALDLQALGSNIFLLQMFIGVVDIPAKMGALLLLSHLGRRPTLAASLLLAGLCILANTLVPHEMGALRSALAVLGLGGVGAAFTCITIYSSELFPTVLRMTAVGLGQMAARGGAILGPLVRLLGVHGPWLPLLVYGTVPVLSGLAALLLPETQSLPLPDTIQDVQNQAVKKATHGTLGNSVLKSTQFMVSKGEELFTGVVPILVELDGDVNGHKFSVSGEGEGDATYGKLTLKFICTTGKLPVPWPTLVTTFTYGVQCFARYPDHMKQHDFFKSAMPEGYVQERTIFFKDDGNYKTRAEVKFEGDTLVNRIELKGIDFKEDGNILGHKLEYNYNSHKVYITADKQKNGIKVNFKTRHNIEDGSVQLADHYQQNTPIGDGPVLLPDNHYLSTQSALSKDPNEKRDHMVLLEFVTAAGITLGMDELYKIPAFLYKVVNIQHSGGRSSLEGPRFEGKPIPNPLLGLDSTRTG

Compound	IC50
COc1ccc(C(F)(F)F)cc1Oc1ccc(S(=O)(=O)Nc2ncns2)cc1C#N [Example 29, 3-cyano-4-[2-methoxy-5-(trifluoromethyl)phenoxy]-N-(1,2,4-thiadiazol-5-yl)benzenesulfonamide diethylamine salt]	> 6.08 µM
N#Cc1cc(S(=O)(=O)Nc2ncns2)ccc1Oc1ccc(C(F)(F)F)cc1C(F)(F)F [Example 33, 4-[2,4-bis(trifluoromethyl)phenoxy]-3-cyano-N-(1,2,4-thiadiazol-5-yl)benzenesulfonamide]	6.19 µM
N#Cc1cc(S(=O)(=O)Nc2ncns2)ccc1Oc1ccccc1C(F)(F)F [Example 35, 3-cyano-4-(2-(trifluoromethyl)phenoxy)-N-(1,2,4-thiadiazol-5-yl)benzenesulfonamide]	4.32 µM
N#Cc1cc(S(=O)(=O)Nc2ncns2)ccc1Oc1ccccc1F [Example 36, 3-cyano-4-(2-fluorophenoxy)-N-(1,2,4-thiadiazol-5-yl)benzenesulfonamide]	1.94 µM
N#Cc1cc(S(=O)(=O)Nc2ncns2)ccc1Oc1cc(C(F)(F)F)ccc1F [Example 44, 3-cyano-4-[2-fluoro-5-(trifluoromethyl)phenoxy]-N-(1,2,4-thiadiazol-5-yl)benzenesulfonamide]	4.33 µM
N#Cc1cc(S(=O)(=O)Nc2ncns2)ccc1Oc1cc(C(F)(F)F)ccc1Cl [Example 45, 4-[2-chloro-5-(trifluoromethyl)phenoxy]-3-cyano-N-(1,2,4-thiadiazol-5-yl)benzenesulfonamide]	1.02 µM
N#Cc1cc(F)ccc1Oc1ccc(S(=O)(=O)Nc2ncns2)cc1C#N [Example 47, 3-cyano-4-(2-cyano-4-fluorophenoxy)-N-(1,2,4-thiadiazol-5-yl)benzenesulfonamide]	5.39 µM
N#Cc1cc(S(=O)(=O)Nc2ncns2)ccc1Oc1cccc(C(F)(F)F)c1F [Example 53, 3-cyano-4-[2-fluoro-3-(trifluoromethyl)phenoxy]-N-(1,2,4-thiadiazol-5-yl)benzenesulfonamide]	5.24 µM
N#Cc1cc(S(=O)(=O)Nc2ncns2)ccc1Oc1cccc(C(F)(F)F)c1 [Example 54, 3-cyano-N-(1,2,4-thiadiazol-5-yl)-4-[3-(trifluoromethyl)phenoxy]benzene sulfonamide]	2.85 µM
CCc1cc(F)ccc1Oc1ccc(S(=O)(=O)Nc2ncns2)c(C#N)c1 [Example 56, 2-cyano-4-(2-ethyl-4-fluorophenoxy)-N-(1,2,4-thiadiazol-5-yl)benzenesulfonamide]	2.12 µM
Cn1cc(NS(=O)(=O)c2ccc(Oc3ccc(C#N)c(Cl)c3)c(C#N)c2)cn1 [Example 58, 4-(3-chloro-4-cyanophenoxy)-3-cyano-N-(1-methyl-1H-pyrazol-4-yl)benzenesulfonamide]	> 10 µM
Cc1cc(NS(=O)(=O)c2ccc(Oc3ccc(C#N)c(Cl)c3)c(C#N)c2)on1 [Example 59, 4-(3-chloro-4-cyanophenoxy)-3-cyano-N-(3-methyl-1,2-oxazol-5-yl)benzenesulfonamide]	> 10 µM
O=S(=O)(Nc1ncc(F)s1)c1ccc(Oc2ccc(Cl)cc2OC(F)(F)F)c(F)c1 [Example 60, 4-[4-chloro-2-(trifluoromethoxy)phenoxy]-3-fluoro-N-(5-fluoro-1,3-thiazol-2-yl)benzenesulfonamide]	> 8.78 µM

The remaining lines, values ahead:

IC50	Compound
0.609 µM	N#Cc1cc(S(=O)(=O)Nc2ncns2)ccc1Oc1ccc(Cl)cc1OC1CCC1 [Example 30, 4-[4-chloro-2-(cyclobutyloxy)phenoxy]-3-cyano-N-(1,2,4-thiadiazol-5-yl)benzenesulfonamide diethylamine salt]
2.22 µM	N#Cc1cc(S(=O)(=O)Nc2ncns2)ccc1Oc1cc(Cl)ccc1OC(F)F [Example 31, 4-[5-chloro-2-(difluoromethoxy)phenoxy]-3-cyano-N-(1,2,4-thiadiazol-5-yl)benzenesulfonamide]
0.986 µM	N#Cc1cc(S(=O)(=O)Nc2ncns2)ccc1Oc1ccc(Cl)cc1OC(F)(F)F [Example 32, 4-[4-chloro-2-(trifluoromethoxy)phenoxy]-3-cyano-N-(1,2,4-thiadiazol-5-yl)benzenesulfonamide diethylamine salt]
> 7.1 µM	CC(C)(C)c1ccc(Oc2ccc(S(=O)(=O)Nc3ncns3)cc2C#N)c(Cl)c1 [Example 38, 4-(4-tert-butyl-2-chlorophenoxy)-3-cyano-N-(1,2,4-thiadiazol-5-yl)benzenesulfonamide]
0.994 µM	Cc1cc(F)ccc1Oc1ccc(S(=O)(=O)Nc2ncns2)cc1C#N [Example 39, 3-cyano-4-(4-fluoro-2-methylphenoxy)-N-(1,2,4-thiadiazol-5-yl)benzenesulfonamide]
> 2.92 µM	Cc1ccc(Cl)cc1Oc1ccc(S(=O)(=O)Nc2ncns2)cc1C#N [Example 40, 4-(5-chloro-2-methylphenoxy)-3-cyano-N-(1,2,4-thiadiazol-5-yl)benzenesulfonamide]
1.35 µM	Cc1ccc(F)cc1Oc1ccc(S(=O)(=O)Nc2ncns2)cc1C#N [Example 41, 3-cyano-4-(5-fluoro-2-methylphenoxy)-N-(1,2,4-thiadiazol-5-yl)benzenesulfonamide]
> 3.09 µM	Cc1cc(Cl)ccc1Oc1ccc(S(=O)(=O)Nc2ncns2)cc1C#N [Example 42, 4-(4-chloro-2-methylphenoxy)-3-cyano-N-(1,2,4-thiadiazol-5-yl)benzenesulfonamide]
0.877 µM	N#Cc1cc(S(=O)(=O)Nc2ncns2)ccc1Oc1ccc(F)cc1F [Example 43, 3-cyano-4-(2,4-difluorophenoxy)-N-(1,2,4-thiadiazol-5-yl)benzenesulfonamide]
0.504 µM	N#Cc1cc(S(=O)(=O)Nc2ncns2)ccc1Oc1ccc(F)cc1Cl [Example 46, 4-(2-chloro-4-fluorophenoxy)-3-cyano-N-(1,2,4-thiadiazol-5-yl)benzenesulfonamide]
1.96 µM	N#Cc1cc(S(=O)(=O)Nc2ncns2)ccc1Oc1cccc(Cl)c1F [Example 48, 4-(3-chloro-2-fluorophenoxy)-3-cyano-N-(1,2,4-thiadiazol-5-yl)benzenesulfonamide]
1.46 µM	N#Cc1cc(S(=O)(=O)Nc2ncns2)ccc1Oc1cccc(F)c1F [Example 49, 3-cyano-4-(2,3-difluorophenoxy)-N-(1,2,4-thiadiazol-5-yl)benzenesulfonamide]
2.55 µM	N#Cc1cc(S(=O)(=O)Nc2ncns2)ccc1Oc1cc(F)ccc1F [Example 50, 3-cyano-4-(2,5-difluorophenoxy)-N-(1,2,4-thiadiazol-5-yl)benzenesulfonamide]
2.14 µM	N#Cc1ccc(Oc2ccc(S(=O)(=O)Nc3ncns3)cc2C#N)c(F)c1 [Example 51, 3-cyano-4-(4-cyano-2-fluorophenoxy)-N-(1,2,4-thiadiazol-5-yl)benzenesulfonamide]
0.65 µM	N#Cc1cc(S(=O)(=O)Nc2ncns2)ccc1Oc1ccc(Cl)cc1F [Example 52, 4-(4-chloro-2-fluorophenoxy)-3-cyano-N-(1,2,4-thiadiazol-5-yl)benzenesulfonamide]
0.59 µM	N#Cc1cc(S(=O)(=O)Nc2ncns2)ccc1Oc1cc(Cl)ccc1Cl [Example 55, 3-cyano-4-(2,5-dichlorophenoxy)-N-(1,2,4-thiadiazol-5-yl)benzenesulfonamide]
0.517 µM	[2H]C([2H])([2H])Oc1cc(Cl)ccc1Oc1ccc(S(=O)(=O)Nc2ncns2)cc1C#N [Example 57]
